According to US11407719B2, “Anti-inflammatory agents” (Resverlogix Corp., priority 2009, dated 2022):

Assays:
VCAM-1 mRNA = test: Quantification of hVCAM mRNA; format: cell-based, human; set-up: key: Active: an active compound is one that causes a ≥20% inhibition in VCAM-1 mRNA at a concentration less than or equal to 10 μM; -1 mRNA at a concentration less than or equal to 10 μM; conditions: VCAM-1 mRNA by real-time PCR; HUVECs, 1 h pretreatment, tumor necrosis factor-α stimulation 24 h; concentration ≤10 μM
Procedure: In this example, […] in tissue culture cells was quantitated to measure the transcriptional inhibition of hVCAM when treated with a compound of the invention.
Human umbilical vein endothelial cells (HUVECs) were plated in a 96-well plate (4.0×10^3 cells/well) in 100 μL EGM media and incubated for 24 h prior to the addition of the compound of interest. The cells were pretreated for 1 h with the test compound prior to stimulation with tumor necrosis factor-α. The cells were incubated for an additional 24 h before the cells were harvested. At time of harvest, the spent media was removed from the HUVECs and rinsed in 200 μL PBS. Cell lysis solution (70 μL) was then added the cells in each well and incubated for ˜5-10 min at room temperature, to allow for complete cell lysis and detachment. mRNA was then prepared using the “mRNA Catcher PLUS plate” (Invitrogen), according to the protocol supplied. After the last wash, as much wash buffer as possible was aspirated without allowing the wells to dry. Elution buffer (E3, 70 μL) was then added to each well. mRNA was then eluted by incubating the mRNA Catcher PLUS plate with elution buffer for 5 min at 68° C. and then immediately placing the plate on ice.
(§1) The eluted mRNA so isolated was then used in a one-step quantitative real-time PCR reaction, using components of the Ultra Sense Kit together with Applied Biosystems primer-probe mixes. Real-time PCR data was analyzed, normalizing the Ct values for hVCAM to an internal control, prior to determining the fold induction of each unknown sample, relative to the control.

hIL-6 mRNA = test: Quantification of hIL-6 mRNA; format: cell-based, human; set-up: key: Active: an active compound is one that causes a ≥20% inhibition in IL-6 mRNA at a concentration less than or equal to 10 μM; conditions: IL-6 mRNA by real-time PCR; differentiated U937 cells, 1 h pretreatment, lipopolysaccharide stimulation 3 h; concentration ≤10 μM
Procedure: In this example, […] in tissue culture cells was quantitated to measure the transcriptional inhibition of hIL-6 when treated with a compound of the invention.
A human leukemic monocyte lymphoma cell line (U937) was plated (3.2×10^5 cells per well) in a 96-well plate in 100 μL RPMI-1640, and differentiated for 3 days prior to the addition of the compound of interest. The cells were pretreated for 1 h with the test compound prior to stimulation with lipolysaccharide from Escherichia coli. The cells were incubated at 37° C. for 3 h before the cells were harvested. At time of harvest, the spent media was removed from the cells and the cells were rinsed in 200 μL PBS. Cell lysis solution (70 μL) was added the cells in each well and incubated for 5-10 min at room temperature, to allow for complete cell lysis and detachment. mRNA was then prepared using the “mRNA Catcher PLUS plate” (Invitrogen), according to the protocol supplied. After the last wash, as much wash buffer as possible was aspirated without allowing the wells to dry. Elution buffer (E3, 70 μL) was then added to each well. mRNA was then eluted by incubating the mRNA Catcher PLUS plate with Elution Buffer for 5 min at 68° C. and then immediately placing the plate on ice.
as §1, with “mRNA” for “mRNA so”, “hIL-6” for “hVCAM”

Compound | Inhibition of VCAM-1 expression (VCAM-1 mRNA) | Inhibition of IL-6 expression (hIL-6 mRNA)
COc1cc(OC)c2c(=O)[nH]c(-c3ccc(N4C[C@@H](C)N[C@@H](C)C4)cc3)nc2c1 [2-(4-((3R,5S)-3,5-Dimethylpiperazin-1-yl)phenyl)-5,7-dimethoxyquinazolin-4(3H)-one] | Active | Active
COc1cc(OC)c2c(=O)[nH]c(-c3ccc(N4CCN(CCO)CC4)cc3)nc2c1 [2-(4-(4-(2-hydroxyethyl)piperazin-1-yl)phenyl)-5,7-dimethoxyquinazolin-4(3H)-one] | Active | Active
COc1cc(OC)c2c(=O)[nH]c(-c3ccc4[nH]c(CN(C)C)cc4c3)nc2c1 [2-(2-((Dimethylamino)methyl)-1H-indol-5-yl)-5,7-dimethoxyquinazolin-4(3H)-one] | Active | Active
COc1cc(OC)c2c(=O)[nH]c(-c3ccc4[nH]c(CN5CCCC5)cc4c3)nc2c1 [5,7-Dimethoxy-2-(2-(pyrrolidin-1-ylmethyl)-1H-indol-5-yl)quinazolin-4(3H)-one] | Active | Active
COCCOc1cc(OC)cc2nc(-c3cc(C)nc(C)c3)[nH]c(=O)c12 [2-(2,6-Dimethylpyridin-4-yl)-7-methoxy-5-(2-methoxyethoxy)quinazolin-4(3H)-one] | Inactive | Active
COc1cc(OC)c2c(=O)[nH]c(-c3cc(C)c(OCCN4CCOCC4)c(C)c3)nc2c1 [2-(3,5-dimethyl-4-(2-morpholinoethoxy)phenyl)-5,7-dimethoxyquinazolin-4(3H)-one] | Active | Active
COc1cc(OC)c2c(=O)[nH]c(-c3ccc(N4CCN(C(=O)c5cnn(C)c5Cl)CC4)cc3)nc2c1 [2-(4-(4-(5-Chloro-1-methyl-1H-pyrazole-4-carbonyl)piperazin-1-yl)phenyl)-5,7-dimethoxyquinazolin-4(3H)-one] | Active | Active
COc1cc(OC)c2c(=O)[nH]c(-c3ccc(N4CCN(C(=O)C(C)C)CC4)cc3)nc2c1 [2-(4-(4-Isobutyrylpiperazin-1-yl)phenyl)-5,7-dimethoxyquinazolin-4(3H)-one] | Active | Active
COc1cc(OC)c2c(=O)[nH]c(-c3cc(C)c(OC[C@@H]4CCC(=O)N4)c(C)c3)nc2c1 [(S)-2-(3,5-Dimethyl-4-((5-oxopyrrolidin-2-yl)methoxy)phenyl)-5,7-dimethoxyquinazolin-4(3H)-one] | Active | Active
COc1cc(OC)c2c(=O)[nH]c(-c3ccc4[nH]c(CCN5CCCC5)cc4c3)nc2c1 [5,7-Dimethoxy-2-(2-(2-(pyrrolidin-1-yl)ethyl)-1H-indol-5-yl)quinazolin-4(3H)-one] | Active | Active
COc1cc(OC)c2c(=O)[nH]c(-c3cc(C)c(OCCN4CCCC4)c(C)c3)nc2c1 [2-(3,5-dimethyl-4-(2-(pyrrolidin-1-yl)ethoxy)phenyl)-5,7-dimethoxyquinazolin-4(3H)-one] | Active | Active
COc1cc(OC)c2c(=O)[nH]c(-c3ccc(N4CCNCC4)cc3)nc2c1 [5,7-Dimethoxy-2-(4-(piperazin-1-yl)phenyl)quinazolin-4(3H)-one] | Active | Active
COc1cc(OC)c2c(=O)[nH]c(-c3ccc(N4CCC(NC(C)=O)CC4)cc3)nc2c1 [N-(1-(4-(5,7-Dimethoxy-4-oxo-3,4-dihydroquinazolin-2-yl)phenyl)piperidin-4-yl)acetamide] | Active | Active
COc1cc(OC)c2c(=O)[nH]c(-c3ccc(N4CCN(C(C)=O)CC4)cc3)nc2c1 [2-(4-(4-Acetylpiperazin-1-yl)phenyl)-5,7-dimethoxyquinazolin-4(3H)-one] | Active | Active
COc1cc(OC)c2c(=O)[nH]c(-c3ccc(N4CCNC(C)C4)cc3)nc2c1 (stereo not drawn) [5,7-Dimethoxy-2-(4-(3-methylpiperazin-1-yl)phenyl)quinazolin-4(3H)-one] | – | Active
COc1cc(OC)c2c(=O)[nH]c(-c3ccc(N4CCC(NCc5ccccc5)CC4)nc3)nc2c1 [2-(6-(4-(Benzylamino)piperidin-1-yl)pyridin-3-yl)-5,7-dimethoxyquinazolin-4(3H)-one] | – | Active
COc1cc(OC)c2c(=O)[nH]c(-c3ccc(N4CCC(N(Cc5ccccc5)C(C)=O)CC4)nc3)nc2c1 [N-Benzyl-N-(1-(5-(5,7-dimethoxy-4-oxo-3,4-dihydroquinazolin-2-yl)pyridin-2-yl)piperidin-4-yl)acetamide] | – | Active
COc1cc(OC)c2c(=O)[nH]c(-c3ccc(N4CCC(NC(=O)N(C)C)CC4)cc3)nc2c1 [3-(1-(4-(5,7-Dimethoxy-4-oxo-3,4-dihydroquinazolin-2-yl)phenyl)piperidin-4-yl)-1,1-dimethylurea] | – | Active
COc1cc(OC)c2c(=O)[nH]c(-c3ccc(CN4CCOCC4)cc3)nc2c1 [5,7-dimethoxy-2-(4-(morpholinomethyl)phenyl)quinazolin-4(3H)-one] | – | Active
COc1cc(OC)c2c(=O)[nH]c(-c3ccc(N4CCN(C(=O)c5ccccn5)CC4)cc3)nc2c1 [5,7-Dimethoxy-2-(4-(4-picolinoylpiperazin-1-yl)phenyl)quinazolin-4(3H)-one] | – | Active
COc1cc(OC)c2c(=O)[nH]c(-c3ccc(OC4CCN(C(=O)N(C)C)CC4)cc3)nc2c1 [4-(4-(5,7-Dimethoxy-4-oxo-3,4-dihydroquinazolin-2-yl)phenoxy)-N,N-dimethylpiperidine-1-carboxamide] | – | Active
COc1cc(OC)c2c(=O)[nH]c(-c3ccc(N4CCN(Cc5ccc(F)cc5)CC4)cc3)nc2c1 [2-(4-(4-(4-Fluorobenzyl)piperazin-1-yl)phenyl)-5,7-dimethoxyquinazolin-4(3H)-one] | – | Active
COc1cc(OC)c2c(=O)[nH]c(-c3ccc(N4C[C@@H](C)N(C(C)C)[C@@H](C)C4)cc3)nc2c1 [2-(4-((3R,5S)-4-Isopropyl-3,5-dimethylpiperazin-1-yl)phenyl)-5,7-dimethoxyquinazolin-4(3H)-one] | – | Active
COc1cc(OC)c2c(=O)[nH]c(-c3ccc(CN4CCN(C(C)C)CC4)cc3)nc2c1 [2-(44(4-Isopropylpiperazin-1-yl)methyl)phenyl)-5,7-dimethoxyquinazolin-4(3H)-one] | – | Active
COc1cc(OC)c2c(=O)[nH]c(-c3ccc(N4CCOCC4)cc3)nc2c1 [5,7-dimethoxy-2-(4-morpholinophenyl)quinazolin-4(3H)-one] | – | Active
COc1cc(OC)c2c(=O)[nH]c(-c3ccc(N4CCN(Cc5ccccc5)CC4)cc3)nc2c1 [2-(4-(4-Benzylpiperazin-1-yl)phenyl)-5,7-dimethoxyquinazolin-4(3H)-one] | – | Active
COc1cc(OC)c2c(=O)[nH]c(-c3cc(C)c(OCCN4CCOCC4)c(C)c3)cc2c1 [3-(3,5-dimethyl-4-(2-morpholinoethoxy)phenyl)-6,8-dimethoxyisoquinolin-1(2H)-one] | – | Active
COc1cc(OC)c2c(=O)[nH]c(-c3ccc(C4CCN(C(C)=O)CC4)cc3)nc2c1 [2-(4-(1-acetylpiperidin-4-yl)phenyl)-5,7-dimethoxyquinazolin-4(3H)-one] | – | Active
